{
  "source": "paper PMC6757289",
  "about": "“Design and Characterization of SGK3-PROTAC1, an Isoform Specific SGK3 Kinase PROTAC Degrader” (ACS Chemical Biology, 2019)",
  "experiment_in_all_cases": "kinase profiling panel",
  "assay_type_in_all_cases": "biochemical",
  "settings_in_all_cases": "read-out: % Activity Remaining",
  "key": {"[1]": {"molecular_target": "HIPK3 (Homo sapiens, UniProt Q9H422)", "sequence (Q9H422 whole entry)": "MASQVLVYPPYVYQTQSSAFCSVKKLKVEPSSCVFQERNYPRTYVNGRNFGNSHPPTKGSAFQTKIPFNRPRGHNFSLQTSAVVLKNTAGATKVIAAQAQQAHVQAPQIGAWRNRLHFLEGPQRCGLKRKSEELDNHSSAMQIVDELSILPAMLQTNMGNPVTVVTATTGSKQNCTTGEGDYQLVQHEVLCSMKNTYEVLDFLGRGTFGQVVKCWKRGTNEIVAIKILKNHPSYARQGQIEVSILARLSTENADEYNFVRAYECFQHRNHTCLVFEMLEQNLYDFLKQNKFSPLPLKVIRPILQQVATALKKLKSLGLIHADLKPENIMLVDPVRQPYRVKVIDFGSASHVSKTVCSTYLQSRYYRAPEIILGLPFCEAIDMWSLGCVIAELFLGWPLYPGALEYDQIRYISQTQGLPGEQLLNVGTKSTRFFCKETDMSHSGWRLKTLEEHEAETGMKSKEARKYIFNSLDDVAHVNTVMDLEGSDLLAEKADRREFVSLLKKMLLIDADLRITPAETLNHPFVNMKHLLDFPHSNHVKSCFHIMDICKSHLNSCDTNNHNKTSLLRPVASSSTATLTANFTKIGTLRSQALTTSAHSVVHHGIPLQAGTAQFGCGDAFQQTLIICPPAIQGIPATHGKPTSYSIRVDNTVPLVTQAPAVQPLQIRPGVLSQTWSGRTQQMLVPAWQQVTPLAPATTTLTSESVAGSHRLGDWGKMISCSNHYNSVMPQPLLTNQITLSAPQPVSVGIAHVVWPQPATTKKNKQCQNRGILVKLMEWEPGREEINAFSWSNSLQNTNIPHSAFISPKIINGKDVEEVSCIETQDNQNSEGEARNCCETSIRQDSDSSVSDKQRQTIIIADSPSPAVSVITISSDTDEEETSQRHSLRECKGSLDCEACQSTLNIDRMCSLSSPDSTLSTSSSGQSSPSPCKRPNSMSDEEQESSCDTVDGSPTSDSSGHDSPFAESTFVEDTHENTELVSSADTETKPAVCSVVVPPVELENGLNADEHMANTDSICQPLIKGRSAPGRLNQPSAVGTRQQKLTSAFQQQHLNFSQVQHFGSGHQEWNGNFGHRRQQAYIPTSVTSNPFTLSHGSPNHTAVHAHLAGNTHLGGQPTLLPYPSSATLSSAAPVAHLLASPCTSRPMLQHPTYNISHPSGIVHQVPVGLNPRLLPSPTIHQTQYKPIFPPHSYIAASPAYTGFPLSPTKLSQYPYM", "from_the_text": "(§1) Protein kinase profiling against a Dundee panel of 140 protein kinases was undertaken at the International Centre for Protein Kinase Profiling. The result for each kinase was presented as a mean kinase activity of the reaction taken in triplicate relative to a control sample treated with DMSO. Assay conditions and abbreviations are available at http://www.kinase-screen.mrc.ac.uk."}, "[2]": {"molecular_target": "T1, MARK4 (Homo sapiens, UniProt Q96L34)", "T1 sequence (Q96L34 1-752)": "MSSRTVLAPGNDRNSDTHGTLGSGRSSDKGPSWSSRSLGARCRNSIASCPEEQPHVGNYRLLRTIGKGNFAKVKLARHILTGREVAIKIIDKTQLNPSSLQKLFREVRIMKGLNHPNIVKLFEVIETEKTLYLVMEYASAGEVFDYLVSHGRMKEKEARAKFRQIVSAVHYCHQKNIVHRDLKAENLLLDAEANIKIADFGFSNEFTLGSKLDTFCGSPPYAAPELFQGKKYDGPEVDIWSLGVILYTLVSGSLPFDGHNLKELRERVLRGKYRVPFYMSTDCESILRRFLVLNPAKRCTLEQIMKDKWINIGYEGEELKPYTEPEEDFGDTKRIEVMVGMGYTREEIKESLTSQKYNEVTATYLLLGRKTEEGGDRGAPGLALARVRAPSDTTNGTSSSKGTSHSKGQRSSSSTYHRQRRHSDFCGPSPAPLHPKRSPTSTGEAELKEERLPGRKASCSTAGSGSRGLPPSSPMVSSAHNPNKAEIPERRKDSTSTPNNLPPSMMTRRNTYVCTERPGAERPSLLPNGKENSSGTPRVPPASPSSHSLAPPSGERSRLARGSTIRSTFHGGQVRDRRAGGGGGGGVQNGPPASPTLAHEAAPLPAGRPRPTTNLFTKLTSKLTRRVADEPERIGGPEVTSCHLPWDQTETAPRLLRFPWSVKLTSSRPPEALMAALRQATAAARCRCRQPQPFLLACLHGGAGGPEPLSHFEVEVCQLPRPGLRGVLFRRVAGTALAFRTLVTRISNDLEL", "from_the_text": "as §1"}, "[3]": {"molecular_target": "MINK1 (Homo sapiens, UniProt Q8N4C8)", "sequence (Q8N4C8 whole entry)": "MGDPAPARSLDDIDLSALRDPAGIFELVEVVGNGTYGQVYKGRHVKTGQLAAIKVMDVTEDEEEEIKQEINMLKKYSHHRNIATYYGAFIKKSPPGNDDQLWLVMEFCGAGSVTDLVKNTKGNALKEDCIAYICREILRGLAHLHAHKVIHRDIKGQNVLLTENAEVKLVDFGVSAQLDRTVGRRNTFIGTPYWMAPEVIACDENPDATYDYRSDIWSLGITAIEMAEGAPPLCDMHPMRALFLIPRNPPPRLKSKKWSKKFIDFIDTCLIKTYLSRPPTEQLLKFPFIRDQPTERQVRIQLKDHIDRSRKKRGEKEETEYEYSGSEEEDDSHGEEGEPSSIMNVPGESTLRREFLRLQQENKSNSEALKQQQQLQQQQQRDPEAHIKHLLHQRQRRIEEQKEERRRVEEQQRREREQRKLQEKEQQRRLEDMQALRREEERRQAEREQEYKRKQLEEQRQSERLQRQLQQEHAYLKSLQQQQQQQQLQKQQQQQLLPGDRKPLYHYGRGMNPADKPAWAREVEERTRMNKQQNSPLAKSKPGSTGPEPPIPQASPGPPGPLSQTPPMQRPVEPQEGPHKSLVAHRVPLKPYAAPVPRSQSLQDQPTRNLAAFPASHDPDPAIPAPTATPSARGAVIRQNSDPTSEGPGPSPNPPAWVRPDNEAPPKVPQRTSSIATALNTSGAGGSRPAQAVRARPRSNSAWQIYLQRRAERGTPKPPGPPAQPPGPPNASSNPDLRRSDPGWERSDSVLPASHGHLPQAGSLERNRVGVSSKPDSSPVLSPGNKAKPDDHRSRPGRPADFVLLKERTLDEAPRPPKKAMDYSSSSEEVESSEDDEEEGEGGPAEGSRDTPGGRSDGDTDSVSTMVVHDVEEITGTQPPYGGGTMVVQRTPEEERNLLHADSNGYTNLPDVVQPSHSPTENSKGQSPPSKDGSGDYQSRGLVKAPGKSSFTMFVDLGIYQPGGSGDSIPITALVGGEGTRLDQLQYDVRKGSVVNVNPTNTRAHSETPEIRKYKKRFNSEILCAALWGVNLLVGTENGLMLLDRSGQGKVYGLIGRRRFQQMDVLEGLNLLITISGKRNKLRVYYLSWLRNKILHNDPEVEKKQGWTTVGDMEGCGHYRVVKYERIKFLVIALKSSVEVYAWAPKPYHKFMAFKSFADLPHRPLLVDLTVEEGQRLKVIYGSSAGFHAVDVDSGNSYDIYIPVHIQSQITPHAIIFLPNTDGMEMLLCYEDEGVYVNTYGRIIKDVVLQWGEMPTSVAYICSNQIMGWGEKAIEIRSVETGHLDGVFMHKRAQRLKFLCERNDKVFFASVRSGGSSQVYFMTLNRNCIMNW", "from_the_text": "as §1"}, "[4]": {"molecular_target": "T2, MST2 (Homo sapiens, UniProt Q13188)", "T2 sequence (Q13188 1-491)": "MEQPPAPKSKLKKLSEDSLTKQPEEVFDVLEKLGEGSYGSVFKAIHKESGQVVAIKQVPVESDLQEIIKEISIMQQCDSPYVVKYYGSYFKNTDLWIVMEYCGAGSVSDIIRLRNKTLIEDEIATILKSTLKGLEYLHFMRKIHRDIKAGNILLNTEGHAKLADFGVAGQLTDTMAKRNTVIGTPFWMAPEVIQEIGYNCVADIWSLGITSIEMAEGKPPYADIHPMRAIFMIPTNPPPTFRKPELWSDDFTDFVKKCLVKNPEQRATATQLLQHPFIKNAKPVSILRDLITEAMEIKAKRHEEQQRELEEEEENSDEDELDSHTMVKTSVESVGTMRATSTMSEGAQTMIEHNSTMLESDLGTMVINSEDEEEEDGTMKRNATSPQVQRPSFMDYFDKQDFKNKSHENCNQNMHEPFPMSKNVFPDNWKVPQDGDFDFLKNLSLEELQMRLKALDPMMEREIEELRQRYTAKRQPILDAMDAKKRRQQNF", "from_the_text": "as §1"}, "[5]": {"molecular_target": "T3, ULK1 (Homo sapiens, UniProt O75385)", "T3 sequence (O75385 1-1050)": "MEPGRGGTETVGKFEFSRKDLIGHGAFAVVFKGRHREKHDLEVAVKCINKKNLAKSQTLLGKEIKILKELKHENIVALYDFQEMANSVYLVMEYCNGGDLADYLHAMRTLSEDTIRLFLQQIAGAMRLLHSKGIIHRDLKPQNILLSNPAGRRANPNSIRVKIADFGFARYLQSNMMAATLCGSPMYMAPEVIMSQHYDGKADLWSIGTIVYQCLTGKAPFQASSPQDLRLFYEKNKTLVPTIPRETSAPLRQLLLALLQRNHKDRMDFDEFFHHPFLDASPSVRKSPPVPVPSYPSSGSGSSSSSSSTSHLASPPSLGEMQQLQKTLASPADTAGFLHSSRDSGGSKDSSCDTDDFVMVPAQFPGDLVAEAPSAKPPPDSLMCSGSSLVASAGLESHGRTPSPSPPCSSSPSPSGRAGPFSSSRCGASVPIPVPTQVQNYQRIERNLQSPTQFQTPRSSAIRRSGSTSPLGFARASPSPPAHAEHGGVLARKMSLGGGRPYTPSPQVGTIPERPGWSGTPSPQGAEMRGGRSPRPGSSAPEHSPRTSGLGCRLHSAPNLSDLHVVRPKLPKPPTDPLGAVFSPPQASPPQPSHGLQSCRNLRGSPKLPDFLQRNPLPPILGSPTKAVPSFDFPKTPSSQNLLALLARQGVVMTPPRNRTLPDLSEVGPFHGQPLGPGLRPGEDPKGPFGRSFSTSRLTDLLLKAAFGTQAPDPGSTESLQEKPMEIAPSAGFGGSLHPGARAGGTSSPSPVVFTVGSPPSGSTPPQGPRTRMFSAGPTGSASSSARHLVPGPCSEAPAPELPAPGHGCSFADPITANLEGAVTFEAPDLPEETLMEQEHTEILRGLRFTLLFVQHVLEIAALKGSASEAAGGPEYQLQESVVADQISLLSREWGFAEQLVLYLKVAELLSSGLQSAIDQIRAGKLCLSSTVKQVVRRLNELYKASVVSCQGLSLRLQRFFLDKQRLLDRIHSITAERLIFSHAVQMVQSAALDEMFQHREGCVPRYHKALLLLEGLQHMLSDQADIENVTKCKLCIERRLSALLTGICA", "from_the_text": "as §1"}, "[6]": {"molecular_target": "p38 alpha MAPK (Homo sapiens, UniProt Q16539)", "sequence (Q16539 whole entry)": "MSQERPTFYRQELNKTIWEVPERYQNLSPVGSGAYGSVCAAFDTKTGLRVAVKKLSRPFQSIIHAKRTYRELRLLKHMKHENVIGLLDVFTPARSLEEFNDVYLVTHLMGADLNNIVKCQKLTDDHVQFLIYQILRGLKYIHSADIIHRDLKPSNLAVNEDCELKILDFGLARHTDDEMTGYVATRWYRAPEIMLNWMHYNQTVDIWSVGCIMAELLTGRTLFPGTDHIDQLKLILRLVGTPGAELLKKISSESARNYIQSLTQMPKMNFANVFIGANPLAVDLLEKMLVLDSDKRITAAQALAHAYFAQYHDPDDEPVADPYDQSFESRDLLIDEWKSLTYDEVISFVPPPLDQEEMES", "from_the_text": "as §1"}, "[7]": {"molecular_target": "T4, p38 delta MAPK (Homo sapiens, UniProt O15264)", "T4 sequence (O15264 1-365)": "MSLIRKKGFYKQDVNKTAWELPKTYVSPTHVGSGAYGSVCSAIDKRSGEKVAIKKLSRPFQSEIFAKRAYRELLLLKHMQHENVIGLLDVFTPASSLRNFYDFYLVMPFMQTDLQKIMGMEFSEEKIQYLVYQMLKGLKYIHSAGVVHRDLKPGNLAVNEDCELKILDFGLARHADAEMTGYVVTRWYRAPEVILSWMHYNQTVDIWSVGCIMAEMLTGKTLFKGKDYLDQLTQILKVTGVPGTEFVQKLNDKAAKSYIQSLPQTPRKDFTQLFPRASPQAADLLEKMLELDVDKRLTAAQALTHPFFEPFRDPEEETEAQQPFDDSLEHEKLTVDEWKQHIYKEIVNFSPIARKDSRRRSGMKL", "from_the_text": "as §1"}},
  "note": "Read-outs that look alike come from different tables or passages of the source.",
  "data": [
    {"molecule": "Cc1ccc(F)c(S(=O)(=O)Nc2ccc(-c3nc(OC[C@H]4CN(CCCCCCOCCOCCOCC(=O)N[C@H](C(=O)N5C[C@H](O)C[C@H]5C(=O)NCc5ccc(-c6scnc6C)cc5)C(C)(C)C)CCO4)c4cn[nH]c4n3)cc2)c1", "note": "[SGK3-PROTAC1]", "values": [
      {"measurement": "remaining activity at 1 µM", "setting": "[1]; 1 µM", "value": 111, "unit": "%"},
      {"measurement": "remaining activity at 1 µM", "setting": "[2]; 1 µM", "value": 105, "unit": "%"},
      {"measurement": "remaining activity at 1 µM", "setting": "[3]; 1 µM", "value": 115, "unit": "%"},
      {"measurement": "remaining activity at 1 µM", "setting": "[4]; 1 µM", "value": 112, "unit": "%"},
      {"measurement": "remaining activity at 1 µM", "setting": "[5]; 1 µM", "value": 116, "unit": "%"},
      {"measurement": "remaining activity at 1 µM", "setting": "[6]; 1 µM", "value": 125, "unit": "%"},
      {"measurement": "remaining activity at 1 µM", "setting": "[7]; 1 µM", "value": 103, "unit": "%"}
    ]},
    {"molecule": "COc1ccc(Cl)c(S(=O)(=O)Nc2ccc(-c3nc(OC[C@H]4CNCCO4)c4c(C)n[nH]c4n3)cc2)c1", "note": "[290-R, reference compound]", "values": [
      {"measurement": "remaining activity at 1 µM", "setting": "[1]", "value": 109, "unit": "%"},
      {"measurement": "remaining activity at 1 µM", "setting": "[2]", "value": 98, "unit": "%"},
      {"measurement": "remaining activity at 1 µM", "setting": "[3]", "value": 101, "unit": "%"},
      {"measurement": "remaining activity at 1 µM", "setting": "[4]", "value": 105, "unit": "%"},
      {"measurement": "remaining activity at 1 µM", "setting": "[5]", "value": 78, "unit": "%"},
      {"measurement": "remaining activity at 1 µM", "setting": "[6]", "value": 111, "unit": "%"},
      {"measurement": "remaining activity at 1 µM", "setting": "[7]", "value": 111, "unit": "%"}
    ]},
    {"molecule": "Cc1ccc(F)c(S(=O)(=O)Nc2ccc(-c3nc(OC[C@H]4CN(CCCCCCOCCOCCOCC(=O)N[C@H](C(=O)N5C[C@@H](O)C[C@H]5C(=O)NCc5ccc(-c6scnc6C)cc5)C(C)(C)C)CCO4)c4cn[nH]c4n3)cc2)c1", "note": "[cisSGK3-PROTAC1]", "values": [
      {"measurement": "remaining activity at 1 µM", "setting": "[1]; 1 µM", "value": 105, "unit": "%"},
      {"measurement": "remaining activity at 1 µM", "setting": "[2]; 1 µM", "value": 100, "unit": "%"},
      {"measurement": "remaining activity at 1 µM", "setting": "[3]; 1 µM", "value": 116, "unit": "%"},
      {"measurement": "remaining activity at 1 µM", "setting": "[4]; 1 µM", "value": 100, "unit": "%"},
      {"measurement": "remaining activity at 1 µM", "setting": "[5]; 1 µM", "value": 112, "unit": "%"},
      {"measurement": "remaining activity at 1 µM", "setting": "[6]; 1 µM", "value": 109, "unit": "%"},
      {"measurement": "remaining activity at 1 µM", "setting": "[7]; 1 µM", "value": 121, "unit": "%"}
    ]},
    {"molecule": "Cc1ccc(F)c(S(=O)(=O)Nc2ccc(-c3nc(OC[C@H]4CNCCO4)c4cn[nH]c4n3)cc2)c1", "note": "[308-R, reference compound]", "values": [
      {"measurement": "remaining activity at 1 µM", "setting": "[1]", "value": 44, "unit": "%"},
      {"measurement": "remaining activity at 1 µM", "setting": "[2]", "value": 73, "unit": "%"},
      {"measurement": "remaining activity at 1 µM", "setting": "[3]", "value": 83, "unit": "%"},
      {"measurement": "remaining activity at 1 µM", "setting": "[4]", "value": 86, "unit": "%"},
      {"measurement": "remaining activity at 1 µM", "setting": "[5]", "value": 103, "unit": "%"},
      {"measurement": "remaining activity at 1 µM", "setting": "[6]", "value": 88, "unit": "%"},
      {"measurement": "remaining activity at 1 µM", "setting": "[7]", "value": 126, "unit": "%"}
    ]}
  ]
}
